From patent US7642261B2, “Use of 1-[4-(5-cyanoindol-3-yl)butyl]-4-(2-carbamoyl-benzofuran-5-yl)-piperazine and its physiologically acceptable salts” (Merck Patent GmbH, priority 2002, dated 2010)

Tests used:
Assay type in all cases: in vivo
rats = test: Models for anxiety associated with posttraumatic stress (cat stressor; hole board, elevated plus maze, acoustic startle); settings: given after (acute treatment) and before (prophylactic treatment) the cat stressor
From the text: Animal models of anxiety associated with posttraumatic stress in rats utilize the long-lasting behavioural changes induced by exposure to a native stressor. The therapeutic effects of a compound effective for the acute treatment of anxiety associated with posttraumatic stress are modelled by administration of the compound after exposure to the stressor. The therapeutic effects of a compound effective for the prophylactic treatment of anxiety associated with posttraumatic stress are modelled by administration of the compound before exposure to the stressor. Amongst the several behavioral test procedures, the following is most validated [R. E. Adamec and T. Shallow, Physiology Behavior, 1993, 54: 101-109; R. E. Adamec et al., Behav. Neurosci. 1997, 111: 435-449]. […] The hole board consists of a box (60 cm×60 cm) with four evenly spaced holes; the number of poking its head into a hole is counted for 5 minutes. […] The rat is placed in the centre of the arms, and the frequency of attempts to enter an open arm (risk assessment) as well as the time spent on the open and closed arms are measured. In the acoustic startle test, the rat is placed in a plexiglass cylinder, and a series of 20 white noise bursts of 120 dB out of a background noise of 60 dB is applied, and the latency to and the peak startle amplitude are measured. […]

mice [1] = test: Marble Burying Test (model for OCSD including OCD); settings: 3 mg/kg, subcutaneous application
Description: A typical model for OCSD including OCD is the Marble Burying Test according to Y. Ichimaru, T. Egawa, A. Sawa, Jpn. J. Pharmacol. 1995, 68: 65-70.
The apparatus consists of an open cubic box with 25 clean glass marbles evenly spaced on sawdust. Individual mice are placed in the test box, and the number of glass marbles left uncovered after 20 minutes are counted. 1-[4-(5-cyanoindol-3-yl)butyl]-4-(2-carbamoyl-benzofuran-5-yl)-piperazine or one of its physiologically acceptable salts, in particular 1-[4-(5-cyanoindol-3-yl)butyl]-4-(2-carbamoyl-benzofuran-5-yl)-piperazine hydrochloride, following subcutaneous application inhibits mable burying in mice dose-dependently. For example, a dose of 3 mg/kg of 1-[4-(5-cyanoindol-3-yl)butyl]-4-(2-carbamoyl-benzofuran-5-yl)-piperazine hydrochloride nearly completely (92%) inhibits marble burying; equieffective doses of conventional serotonin reuptake inhibitors are e.g. 20 mg/kg for fluvoxamine or 17 mg/kg for fluoxetine and an equieffective dose of the 5-HT1A agonist ipsapirone is 10 mg/kg.

[2] = Cumulative Food Intake / development of body weight, rats or mice; settings: free access to food
Description: A typical animal model for eating disorders and/or obesity and/or anorexia is named Cumulative Food Intake according to H. C. Jackson, A. M, Needham, L. J. Hutchins, S. E. Mazurkiewicz, D. J. Heal, Br. J. Pharmacol., 1997, 121: 1758-1762, which can be utilized in various species. Usually, rats or mice are given free access to food, and the development of body weight is measured over time. The test can be performed in both starved and non-starved rats or mice. Moreover, chronic or acute administration of a medication can be investigated.
(§1) Thus, differential effects on body weight indicating therapeutic efficacy in either obesity or anorexia depending on the dose range used are evident.

[3] = Abdominal constriction (writhing) test; settings: 30 mg/kg p.c.
Description: (§2) Rapid procedures to test pain-relieving properties of drugs are the abdominal constriction (writhing) test according to E. Siegmund et all., Proc. Soc. Exp. Biol. Med. 1957, 95: 729-731 and the intradermal formalin test according to S. Hunskaar et al., J. Neurosci. Meth. 1985, 14: 69-76. For example, 1-[4-(5-cyanoindol-3-y1)butyl]-4-(2-carbamoyl-benzofuran-5-yl)-piperazine hydrochloride at 30 mg/kg p.c. reduced abdominal contrictions by 82%, and 10 mg/kg p.o. reduced the formalin-induced pain response by 79%.

[4] = Intradermal formalin test; settings: 10 mg/kg p.o.
Description: as §2

mice [5] = test: Light-Dark Choice Test (model for generalized anxiety disorders); settings: oral dose of 10 mg/kg, 5 min
Description: A typical model for generalized anxiety disorders is the Light-Dark Chaise Test […] according to J. N. Crawly, Pharmacol. Biochem Behav. 1981,15: 695-699.
The light-dark choise apparatus consists of two connected boxes with one box darkened and the other one highly illuminated. A mouse is placed in one box, and the time spent in lit box and the number of transitions between boxes are measured over a period of 5 min. Normal mice only have low numbers of entries to the lit compartment and spent most time in the dark compartment.
1-[4-(5-cyanoindol-3-yl)butyl]-4-(2-carbamoyl-benzofuran-5-yl)-piperazine or one of its physiologically acceptable salts, in particular 1-[4-(5-cyanoindol-3-yl)butyl]-4-(2-carbamoyl-benzofuran-5-yl)-piperazine hydrochloride, following oral application dose -dependently increase the number of transitions and time spent in lit compartment. For example, an oral dose of 10 mg/kg of 1-[4-(5-cyanoindol-3-yl)butyl]-4-(2-carbamoyl-benzofuran-5-yl)-piperazine hydrochloride increased the number of transitions by 73% and time spent in lit compartment by 31%.

[6] = Development of body weight, dogs
From the text: as §1

mice [7] = test: Elevated Plus Maze (model for agoraphobia), mice; settings: 10 mg/kg p.o., 3 min test period
Description: A typical model for Agoraphobia is named Elevated Plus Maze according to S. Pellow, P. Chopin, S. E. File, M. Briley, J. Neurosci. Meth., 1985,14: 145-167.
The apparatus consists of an X-shaped platform elevated from the floor, with two “open” unprotected arms and two “closed” protected arms, with animals having free access to both arms. The rat or mouse is placed in the centre of the arms, and the number of entires made and the time spent on the open arms is measured in a 3 min test period. Normal animals have very low basal levels, i.e. avoid entering the open arms and stay only a for a very brief period on open arms.
In rats, a dose of 10 mg/kg p.o. increased number of entries by 56% and time spent on open arms by 76%.

## Cl.N#Cc1ccc2[nH]cc(CCCCN3CCN(c4ccc5oc(C(N)=O)cc5c4)CC3)c2c1 [1-[4-(5-cyanoindol-3-yl)butyl]-4-(2-carbamoyl-benzofuran-5-yl)-piperazine hydrochloride]
rats
  effect in models for anxiety associated with posttraumatic stress: effective
Mice [1]
  inhibition of marble burying: 92%
[2]; orally for 4 consecutive days, lower doses of up to 50 mg/kg
  body weight at lower doses: increased body weight
[2]; orally up to 360 mg/kg for 4 consecutive days, higher doses
  development of body weight at higher doses: reduced development of body weight
[3]
  reduction of abdominal constrictions: 82%
[4]
  reduction of formalin-induced pain response: 79%
Mice [5]
  increase of number of transitions: 73%
  increase of time spent in lit compartment: 31%
[6]
  development of body weight: reduced development of body weight
Mice [7]
  increase of number of entries on open arms: 157%
  increase of time spent on open arms: 105%
